Source: patent publication US20130131018A1, “SUBSTITUTED ISOQUINOLINES AND THEIR USE AS TUBULIN POLYMERIZATION INHIBITORS” (Exonhit S.A., priority 2010, published 2013)
Where a name gives a salt, the structure may show the parent alone. Read-outs that look alike come from different tables or passages of the source.

Experiments:
purified tubulin = biological target: T1, purified tubulin (Sus scrofa, UniProt P02550+P02554); experiment: Tubulin polymerisation assay (CytoDYNAMIX Screen kit, absorbance at 340 nm); assay type: biochemical; details: for inhibition at 5 µM: 5 μM compound, 4 mg/ml tubulin, read-out: % Inhibition of tubulin polymerization at 5 μM; for IC50: tubulin polymerization
T1 construct: purchased Cytoskeleton #BK006P
Procedure: The polymerization of purified tubulin was monitored spectrophotometrically by the change in absorbance at 340 nm using the CytoDYNAMIX Screen kit (#BK006P, Cytoskeleton) according to the instructions of the manufacturer. […] The absorbance was measured at 1 minute intervals for 60 minutes. The test compound was added to a 4 mg/ml tubulin solution containing 10% glycerol and 1 mM GTP in Buffer 1 (Buffer 1: 80 mM PIPES; 2 mM MgCl2; 0.5 mM EGTA, pH 6.9). Increased absorbance indicates increase in microtubule formation from tubulin heterodimers.

K562 cell line = experiment: MTT assay: cytotoxicity against the K562 cell line; assay type: cell-based; details: Homo sapiens, K562 cells, 72 h, growth inhibition
Procedure: Assessment of Cell Viability via MTT Assay: Cytotoxicity of compounds against the K562 cell line was assessed using the [3-(4,5-dimethylthiazol-2-yl)-2,5-diphenyl tetrazolium bromide] (MTT) assay. Fifteen thousand tumor cells were seeded into wells of flat-bottomed 96-well plates. An amount of 2 μL of a dilution series of each compound dissolved in DMSO was added to 198 μL of appropriate growth medium at three replicates per concentration and the plates were incubated in a 5% CO2 incubator at 37° C. After 72 h, the number of metabolically active cells was determined by MTT assay. Absorbance of each well was measured at 550 nm on a Tecan Sunrise reader. Dose-response curves for growth inhibition were generated as a percentage of untreated control. IC50 was determined by nonlinear regression (Prism, Graph Pad Software, Inc.).

[1] = biological target: T2, colchicine site on tubulin (biotinylated porcine tubulin) (Sus scrofa, UniProt P02550+P02554); experiment: Tubulin displacement assay (3H-colchicine radioligand binding, SPA); details: competition with 50 nM [3H]-colchicine, 4 h at 37° C.; read-out: IC50
T2 construct: biotin (chemical label)
Procedure: The assay was developped following the method published by Tahir et al. (2001) and others using biotinylated porcine tubulin captured to streptavidin coated yttrium silicate scintillation proximity assay (YSi SPA) beads in a PIPES/EGTA/MgCl2/GTP buffer. […] IC50s were determined using GraphPad Prism Version 5.01 and the sigmoidal dose response with variable slope curve fit.

[2] = test system: Endothelial cells (HUVEC); experiment: Neovessels formation inhibition (capillary tube formation on Matrigel); assay type: cell-based; details: Homo sapiens, HUVEC on Matrigel, compounds overnight
Procedure: The capability of compounds to inhibit the formation of capillaries was evaluated in vitro. Twenty thousand Endothelial cells (HUVEC) were placed on a Matrigel matrix and allowed to form capillary tubes in the presence or absence of the compounds overnight. The cells were stained with calcein AM, and the effect of the compounds on capillary tube formation was assessed using an inverted fluorescent microscope (Nikon). The reference compound used in this assay AVE-8063 is 3-amino-deoxycombretastatin A-4.

HUVEC = experiment: Pre-established vessels disruption (capillary tubes on Matrigel); assay type: cell-based; details: Homo sapiens, HUVEC tubes formed 5 hours, then compounds overnight
Procedure: To explore the effect of the compounds on pre-established vasculature, twenty thousand cells (HUVEC) were seeded and incubated over Matrigel for 5 hours to allow the capillary tubes to form. Then, compounds were added and incubated overnight. The disappearance of existing vasculature was monitored with fluorescent microscopy.

[3] = read-out: Neovessels Formation Inhibition Number of Branch Junctions IC50
[4] = read-out: Neovessels Formation Inhibition Total Tubule Length IC50
[5] = read-out: Pre-established Vessels Disruption Number of Branch Junctions IC50
[6] = read-out: Pre-established Vessels Disruption Total Tubule Length IC50

T2 sequence (P02554 whole entry): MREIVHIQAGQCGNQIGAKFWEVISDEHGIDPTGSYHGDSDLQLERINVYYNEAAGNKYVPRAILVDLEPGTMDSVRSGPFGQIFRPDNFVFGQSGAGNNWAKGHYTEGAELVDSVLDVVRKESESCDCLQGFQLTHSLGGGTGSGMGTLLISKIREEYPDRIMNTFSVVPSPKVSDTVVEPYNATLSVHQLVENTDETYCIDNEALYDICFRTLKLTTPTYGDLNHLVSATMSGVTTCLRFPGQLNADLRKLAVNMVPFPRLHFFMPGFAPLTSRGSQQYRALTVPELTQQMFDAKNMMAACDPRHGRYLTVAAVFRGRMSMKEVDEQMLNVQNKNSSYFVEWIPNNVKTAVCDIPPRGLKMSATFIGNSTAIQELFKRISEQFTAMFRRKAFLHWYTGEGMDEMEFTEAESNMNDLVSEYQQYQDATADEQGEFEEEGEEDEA
T2 sequence (P02550 whole entry): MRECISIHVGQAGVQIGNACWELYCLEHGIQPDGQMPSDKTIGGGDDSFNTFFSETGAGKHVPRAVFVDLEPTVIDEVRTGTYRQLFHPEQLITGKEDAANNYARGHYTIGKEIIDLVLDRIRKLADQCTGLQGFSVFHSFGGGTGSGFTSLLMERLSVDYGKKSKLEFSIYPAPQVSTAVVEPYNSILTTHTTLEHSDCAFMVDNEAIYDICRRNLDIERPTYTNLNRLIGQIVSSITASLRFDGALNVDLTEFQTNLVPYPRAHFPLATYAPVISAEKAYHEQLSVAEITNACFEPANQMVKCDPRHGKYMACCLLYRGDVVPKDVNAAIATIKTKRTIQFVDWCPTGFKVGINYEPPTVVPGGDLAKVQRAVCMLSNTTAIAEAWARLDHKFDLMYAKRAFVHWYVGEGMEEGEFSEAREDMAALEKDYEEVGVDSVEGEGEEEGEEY
T1 sequence (P02554 whole entry): as the sequence (P02554 whole entry) above
T1 sequence (P02550 whole entry): as the sequence (P02550 whole entry) above

| SMILES | inhibition at 5 µM (purified tubulin) | IC50 (purified tubulin) | IC50 [1] | IC50 (K562 cell line) | IC50 [2, 3] | IC50 [2, 4] | IC50 (HUVEC; [5]) | IC50 (HUVEC; [6]) |
| --- | --- | --- | --- | --- | --- | --- | --- | --- |
| CCOc1ccc2c(Cc3cc(OC)c(OCC(C)C)c(OC)c3)cncc2c1O [Compound 20, 4-(4-Isobutoxy-3,5-dimethoxybenzyl)-7-ethoxyisoquinolin-8-ol hydrochloride] | 56.9% | 1520 nM |  | 20.8 nM | 24.9 nM | 31.9 nM | 22.3 nM | 31.7 nM |
| CCOc1ccc2c(C(=O)c3cc(OC)c(OC)c(OC)c3)cncc2c1N [Compound 29, (8-Amino-7-ethoxyisoquinolin-4-yl)(3,4,5-trimethoxyphenyl)methanone hydrochloride] | 71.3% | 880 nM |  | 1.64 nM | 1.04 nM | 1.47 nM | 1.78 nM | 2.26 nM |
| CCOc1ccc2c(C(=O)c3cc(OC)c(OC)c(OC)c3)cncc2c1 [Compound 40, (7-Ethoxyisoquinolin-4-yl)(3,4,5-trimethoxyphenyl)methanone hydrochloride] | 58.8% | 1130 nM |  | 19.6 nM | 8.2 nM | 12.9 nM | 32.8 nM | 53.4 nM |
| CCOc1ccc2c(C(=O)c3cc(OC)c(OCC)c(OC)c3)cncc2c1OS(N)(=O)=O [Compound 57, 7-Ethoxy-4-(4-ethoxy-3,5-dimethoxybenzoyl)isoquinolin-8-yl sulfamate] | 17% |  | 91.9 nM | 2.69 nM | 2.65 nM | 3.97 nM | 4.37 nM | 6.72 nM |
| CCOc1ccc2c(C(=O)c3cc(OC)c(OCC)c(OC)c3)cncc2c1NS(N)(=O)=O [Compound 59, 7-Ethoxy-4-(4-ethoxy-3,5-dimethoxybenzoyl)isoquinolin-8-yl sulfamide] | 21.5% |  | 745 nM | 7.04 nM | 8.32 nM | 25.2 nM | 27.1 nM | 38.2 nM |
| CCOc1ccc2c(C(=O)c3cc(OC)c(OC)c(OC)c3)cncc2c1OC(C)=O [Compound 96, 7-Ethoxy-4-(3,4,5-trimethoxybenzoyl)isoquinolin-8-yl acetate] | 54.5% |  | 3300 nM | 5.85 nM | 5.07 nM | 8.1 nM | 9.14 nM | 15.3 nM |
| CCOc1ccc2c(C(=O)c3cc(OC)c(OC)c(OC)c3)cncc2c1NS(N)(=O)=O [Compound 105, N-(7-Ethoxy-4-(3,4,5-trimethoxybenzoyl)isoquinolin-8-yl)sulfamide hydrochloride] | 35% |  |  | 4.18 nM | 5.71 nM | 8.06 nM | 9.27 nM | 9.3 nM |
| CC[C@]1(O)C[C@@H]2CN(CCc3c([nH]c4ccccc34)[C@@](C(=O)OC)(c3cc4c(cc3OC)N(C)[C@H]3[C@@](O)(C(=O)OC)[C@H](OC(C)=O)[C@]5(CC)C=CCN6CC[C@]43[C@@H]65)C2)C1 [Vinblastine, reference compound] | 77.7% | 1050 nM |  | 3.66 nM | 1.55 nM | 3.44 nM | 2.09 nM | 5.39 nM |

Now from value to compound, other results behind:

| inhibition at 5 µM (purified tubulin) | IC50 (purified tubulin) | IC50 [1] | SMILES | IC50 (K562 cell line) | IC50 [2, 3] | IC50 [2, 4] | IC50 (HUVEC; [5]) | IC50 (HUVEC; [6]) |
| --- | --- | --- | --- | --- | --- | --- | --- | --- |
| 85% | 1190 nM | 220 nM | CCOc1ccc2c(Cc3cc(OC)c(OC)c(OC)c3)cncc2c1O [Compound 1, 4-(3,4,5-Trimethoxybenzyl)-7-ethoxyisoquinolin-8-ol hydrochloride] | 29.1 nM | 38.5 nM | 54.5 nM |  |  |
| 76.6% | 1040 nM | 170 nM | CCOc1ccc2c(Cc3cc(OC)c(OC)c(OC)c3)cncc2c1N [Compound 3, 7-Ethoxy-4-(3,4,5-trimethoxybenzyl)isoquinolin-8-amine dihydrochloride] | 10.7 nM | 15.3 nM | 21.8 nM | 14.9 nM | 45.6 nM |
|  | 3440 nM | 1600 nM | COc1cc(Cc2cncc3c(OC)c(OC)ccc23)cc(OC)c1OC [Compound 10, 4-(3,4,5-Trimethoxybenzyl)-7,8-dimethoxyisoquinoline hydrochloride] | 283 nM |  |  |  |  |
| 61.9% | 1850 nM |  | CCCOc1c(OC)cc(Cc2cncc3c(O)c(OCC)ccc23)cc1OC [Compound 19, 4-(3,5-Dimethoxy-4-propoxybenzyl)-7-ethoxyisoquinolin-8-ol hydrochloride] | 21.5 nM | 14.4 nM | 23 nM | 6.33 nM | 15.9 nM |
| 65.8% | 1090 nM |  | CCOc1ccc2c(Cc3cc(OC)c(OC)c(OC)c3)cncc2c1OS(N)(=O)=O [Compound 21, 4-(3,4,5-Trimethoxybenzyl)-7-ethoxyisoquinolin-8-yl sulfamate hydrochloride] | 36.9 nM | 47.3 nM | 52.8 nM | 26.7 nM | 60.5 nM |
| 63.4% | 1500 nM |  | C=CCOc1c(OC)cc(Cc2cncc3c(O)c(OCC)ccc23)cc1OC [Compound 32, 4-(4-(Allyloxy)-3,5-dimethoxybenzyl)-7-ethoxyisoquinolin-8-ol hydrochloride] | 21.5 nM | 12.4 nM | 21.9 nM | 20 nM | 48.8 nM |
| 65.1% | 1940 nM |  | CCOc1ccc2c(C(=O)c3cc(OC)c(OCC)c(OC)c3)cncc2c1O [Compound 56, (4-Ethoxy-3,5-dimethoxyphenyl)(7-ethoxy-8-hydroxyisoquinolin-4-yl)methanone hydrochloride] | 4.39 nM | 10.7 nM | 12.2 nM | 14.4 nM | 16.1 nM |
| 38.2% | 3490 nM |  | CCOc1ccc2c(C(=O)c3cc(OC)c(OCC)c(OC)c3)cncc2c1N [Compound 58, (8-amino-7-ethoxyisoquinolin-4-yl)(4-ethoxy-3,5-dimethoxyphenyl)methanone hydrochloride] | 1.23 nM | 0.53 nM | 0.59 nM | 0.99 nM | 1.36 nM |
| 79.5% | 900 nM |  | CCCOc1c(OC)cc(Cc2cncc3c(N)c(OCC)ccc23)cc1OC [Compound 64, 4-(3,5-Dimethoxy-4-propoxybenzyl)-7-ethoxyisoquinolin-8-amine dihydrochloride] | 11.2 nM | 7.02 nM | 9.54 nM | 7.41 nM | 14.7 nM |
| 13% |  |  | CCCOc1c(OC)cc(C(=O)c2cncc3c(OC(C)=O)c(OCC)ccc23)cc1OC [Compound 65, 4-(3,5-Dimethoxy-4-propoxybenzoyl)-7-ethoxyisoquinolin-8-yl acetate] | 3.81 nM | 2.88 nM | 4.23 nM | 3.36 nM | 9.92 nM |
| 10% |  | 38.7 nM | CCCOc1c(OC)cc(C(=O)c2cncc3c(O)c(OCC)ccc23)cc1OC [Compound 67, (3,5-Dimethoxy-4-propoxyphenyl)(7-ethoxy-8-hydroxyisoquinolin-4-yl)methanone hydrochloride] | 4.64 nM | 3.84 nM | 4.8 nM | 9.18 nM | 12.6 nM |
